The values below are quoted from earlier work in patent US20240398763A1, “ORAL DOSAGE FORM CONTAINING ONCOLOGICAL ACTIVE INGREDIENT” (OWP Pharmaceuticals, Inc., priority 2023, published 2024).

In brackets after ≈: the same amount, converted by molar mass. Where a name gives a salt, the structure may show the parent alone.

For the first series the following is noted: all pH solutions.
Regarding `Nc1cccc2c1C(=O)N(C1CCC(=O)NC1=O)C2=O` (stereo not drawn) [pomalidomide], the Solubility (usually the concentration that dissolves in the medium under given conditions) was ~0.01 mg/mL (≈ 36.6 µM).

Still in this series, the particulars now being: aqueous media over the range pH 1.1 to pH 7.8.
In the case of `CNC(=O)c1ccccc1Sc1ccc2c(/C=C/c3ccccn3)n[nH]c2c1` [axitinib], the Solubility result is “excess of 0.2 μg/mL”.

Staying with this series, now noted: aqueous media, pH 6.8.
`C=CC(=O)N1CCN(c2nc(=O)n(-c3c(C)ccnc3C(C)C)c3nc(-c4c(O)cccc4F)c(F)cc23)[C@@H](C)C1` [sotorasib]: the Solubility is given as 0.03 mg/mL (≈ 53.5 µM).

The series is the same for the next values; noted with them: aqueous media, pH 7.4.
Turning to `C=C(F)C(=O)N1CCN(c2nc(OC[C@@H]3CCCN3C)nc3c2CCN(c2cccc4cccc(Cl)c24)C3)C[C@@H]1CC#N` [adagrasib], the Solubility entry is reported as “to <0.010 mg/mL”.

Staying with this series, now noted: aqueous solutions across physiological pH range (pH 1.2 and 7.4).
In the case of `CC(C)(O)CNc1nc(Nc2ccnc(C(F)(F)F)c2)nc(-c2cccc(C(F)(F)F)n2)n1` [enasidenib], the Solubility result was “(solubility ≤74 mcg/mL)”.

The series is the same for the next values; noted with them: at 37° C.
Consider `CN(C)CCOc1ccc(/C(=C(/CCCl)c2ccccc2)c2ccccc2)cc1` [toremifene citrate], for which the Water solubility is 37 °C is 0.63 mg/mL.

Staying with this series, now noted: at 37° C., in words.
Take `O=C(Nc1cnn2ccc(N3CCC[C@@H]3c3cc(F)ccc3F)nc12)N1CC[C@H](O)C1` [larotrectinib]: the Aqueous solubility result is on record as “freely soluble at pH 6.8)”.

Still in this series, the particulars now being: condition not given.
For the compound `NC(=O)NO` [hydroxyurea], the Solubility is recorded as 15 mg/mL (≈ 197000 µM).
On to `CS(=O)(=O)CCNCc1ccc(-c2ccc3ncnc(Nc4ccc(OCc5cccc(F)c5)c(Cl)c4)c3c2)o1` [lapatinib], for which the Solubility is given as 0.007 mg/mL (≈ 12 µM).
With `Nc1ncn([C@H]2C[C@H](O)[C@@H](CO)O2)c(=O)n1` [decitabine], the Solubility is reported as 22.5 mg/mL; unknown.
With `Cn1nnc2c(C(N)=O)ncn2c1=O` [temozolomide], the Solubility is reported as 7 mg/mL (≈ 36100 µM).

The same series, now with this note: in water / aqueous media, in words.
On to `Cc1cc(Nc2ncnc3ccc(NC4=NC(C)(C)CO4)cc23)ccc1Oc1ccn2ncnc2c1` [tucatinib], for which the Solubility entry was “insoluble in water”.
As to `CCCCCN(C)CCC(O)(P(=O)(O)O)P(=O)(O)O` [ibandronate sodium], the Solubility result is given as “water soluble”.
For the compound `Cn1cc(-c2cc3c(N4CCN(c5ncc([C@@](C)(N)c6ccc(F)cc6)cn5)CC4)ncnn3c2)cn1` [avapritinib], the Solubility entry is on record as “insoluble in water”.
Regarding `CC[C@@]1(O)C(=O)OCc2c1cc1n(c2=O)Cc2cc3c(CN(C)C)c(O)ccc3nc2-1` [topotecan], the Solubility result was “water soluble”.
On to `COC(=O)N[C@@H](C)CNc1nccc(-c2cn(C(C)C)nc2-c2cc(Cl)cc(NS(C)(=O)=O)c2F)n1` [encorafenib], for which the Solubility entry is given as “slightly soluble at pH 1,”.
Regarding `COc1cc(N2CCC(N3CCN(C)CC3)CC2)ccc1Nc1ncc(Cl)c(Nc2ccccc2P(C)(C)=O)n1` [brigatinib], the Solubility result is on record as “insoluble in water”.
`C=C(c1ccc(C(=O)O)cc1)c1cc2c(cc1C)C(C)(C)CCC2(C)C` [bexarotene]: the Solubility result is “insoluble in water”.
For the compound `CC(C)(O)CNc1nc(Nc2ccnc(C(F)(F)F)c2)nc(-c2cccc(C(F)(F)F)n2)n1` [enasidenib], the Solubility entry was “practically insoluble”.
Consider `N=C1CCCN1Cc1[nH]c(=O)[nH]c(=O)c1Cl` [tipiracil hydrochloride], for which the Solubility entry was “water soluble; water”.
In the case of `CCc1cc2c(cc1N1CCC(N3CCOCC3)CC1)C(C)(C)c1[nH]c3cc(C#N)ccc3c1C2=O` [alectinib], the Solubility entry is given as “insoluble in water”.
Consider `CS(=O)(=O)OCCCCOS(C)(=O)=O` [busulfan], for which the Solubility entry is “insoluble in water”.
Turning to `Cc1nc(Nc2ncc(C(=O)Nc3c(C)cccc3Cl)s2)cc(N2CCN(CCO)CC2)n1` [dasatinib], the Solubility result was “insoluble in water”.
On to `COc1cc2ncnc(Nc3ccc(F)c(Cl)c3)c2cc1NC(=O)/C=C/CN1CCCCC1` [dacomitinib], for which the Solubility result is “insoluble in water”.
For the compound `CN(C)C/C=C/C(=O)Nc1cc2c(Nc3ccc(F)c(Cl)c3)ncnc2cc1O[C@H]1CCOC1` [afatinib], the Solubility result is “water soluble”.
As for `Cn1ncnc1[C@H]1c2n[nH]c(=O)c3cc(F)cc(c23)N[C@@H]1c1ccc(F)cc1` [talazoparib tosylate], the Solubility entry was “insoluble in water”.
On to `CS(=O)(=O)c1ccc(Oc2cc(F)cc(C#N)c2)c2c1[C@H](O)[C@H](F)[C@@H]2F` [belzutifan], for which the Solubility result was “insoluble in water”.
Consider `O=P1(N(CCCl)CCCl)NCCCO1` (stereo not drawn) [cyclophosphamide], for which the Solubility entry is recorded as “water soluble”.
As to `Sc1ncnc2nc[nH]c12` [mercaptopurine], the Solubility result was “insoluble in water”.
For the compound `C1=C/COCc2cc(ccc2OCCN2CCCC2)Nc2nccc(n2)-c2cccc(c2)COC/1` [pacritinib], the Solubility result is “insoluble in water”.
As to `CN1CCC(COc2cnc(-c3cccc(Cn4nc(-c5cccc(C#N)c5)ccc4=O)c3)nc2)CC1` [tepotinib], the Solubility entry was “insoluble in water”.
Take `CN(Cc1cnc2nc(N)nc(N)c2n1)c1ccc(C(=O)N[C@@H](CCC(=O)O)C(=O)O)cc1` [methotrexate]: the Solubility result is on record as “insoluble in water”.
As for `Cc1ccc(Nc2nccc(N(C)c3ccc4c(C)n(C)nc4c3)n2)cc1S(N)(=O)=O` [pazopanib], the Solubility entry was “insoluble in water”.
Take `Cn1cnc2c(F)c(Nc3ccc(Br)cc3F)c(C(=O)NOCCO)cc21` [binimetinib]: the Solubility entry is listed as “Slightly soluble at pH 1,”.
On to `CN1CCN(c2ccc(C(=O)Nc3n[nH]c4ccc(Cc5cc(F)cc(F)c5)cc34)c(NC3CCOCC3)c2)CC1` [entrectinib], for which the Solubility result was “insoluble in water”.
`COc1cc2nccc(Oc3ccc(NC(=O)NC4CC4)c(Cl)c3)c2cc1C(N)=O` [lenvatinib]: the Solubility entry is on record as “slightly soluble in water”.
As for `C[C@]12CC[C@@H]3c4ccc(OC(=O)N(CCCl)CCCl)cc4CC[C@H]3[C@@H]1CC[C@@H]2OP(=O)(O)O` [estramustine phosphate], the Solubility entry is “water soluble”.
Take `COc1cc2nccc(Oc3ccc(NC(=O)Nc4cc(C)on4)c(Cl)c3)c2cc1OC` [tivozanib]: the Solubility result is reported as “insoluble in water”.
Turning to `Cc1cc(Nc2ncc(Cl)c(Nc3ccccc3S(=O)(=O)C(C)C)n2)c(OC(C)C)cc1C1CCNCC1` [ceritinib], the Solubility entry was “insoluble in water”.
In the case of `O=NN(CCCl)C(=O)NC1CCCCC1` [lomustine], the Solubility entry was “insoluble in water”.
Turning to `CC(=O)O[C@]1(C(C)=O)CC[C@H]2[C@@H]3C[C@H](C)C4=CC(=O)CC[C@]4(C)[C@H]3CC[C@@]21C` [medroxyprogesterone acetate], the Solubility entry was “insoluble in water”.
Consider `Nc1cccc2c1CN(C1CCC(=O)NC1=O)C2=O` (stereo not drawn) [lenalidomide], for which the Solubility entry was “insoluble in water”.
Turning to `O=C(c1cc(Cc2n[nH]c(=O)c3ccccc23)ccc1F)N1CCN(C(=O)C2CC2)CC1` [olaparib], the Solubility result is recorded as “low solubility”.
As for `O=c1[nH]c(=O)n([C@H]2C[C@H](O)[C@@H](CO)O2)cc1C(F)(F)F` [trifluridine], the Solubility entry is given as “water soluble; water”.

The series is the same for the next values; noted with them: pH 1.
Turning to `Cc1cnc(Nc2ccc(OCCN3CCCC3)cc2)nc1Nc1cccc(S(=O)(=O)NC(C)(C)C)c1` [fedratinib], the Solubility result was “condition (>100 mg/mL”.

Staying with this series, now noted: pH 1.0 solution at 37° C.
Consider `C=CC(=O)Nc1cc(Nc2ncc(C(=O)OC(C)C)c(-c3cn(C)c4ccccc34)n2)c(OC)cc1N(C)CCN(C)C` [mobocertinib], for which the Solubility entry is on record as “solubility of 152 mg/mL”.

The same series, now with this note: pH 1.2.
On to `C=C(F)C(=O)N1CCN(c2nc(OC[C@@H]3CCCN3C)nc3c2CCN(c2cccc4cccc(Cl)c24)C3)C[C@@H]1CC#N` [adagrasib], for which the Solubility result was “from >262 mg/mL”.

Still in this series, the particulars now being: pH 7.4.
`Cc1cnc(Nc2ccc(OCCN3CCCC3)cc2)nc1Nc1cccc(S(=O)(=O)NC(C)(C)C)c1` [fedratinib]: the Solubility result is given as “(4 mcg/mL at pH 7.4)”.
